In brackets after ≈: the same amount, converted by molar mass. Several values for one entry are separate records, joined by “and”; a condition that tells them apart may be missing. Identical values can stand only once. Like-named read-outs stand apart in the source and are kept apart here.

Series [1] relates to P. aeruginosa strains. The series can be described thus: MIC by broth microdilution (CLSI), P. aeruginosa strains. It is filed as cell-based. The note with it: Pseudomonas aeruginosa. (Broth dilution looks for growth in wells or tubes with falling amounts of substance.)
The test system of series [2] is P. aeruginosa strains. It is filed as cell-based, Pseudomonas aeruginosa. On the procedure:
The pharmacokinetics simulation was based on data from the clinical study disclosed in Example 2.
In Vitro PK-PD Model: Six medium sized hollow-fiber cartridges (FiberCell Systems) were used per experiment. Three strains studied in duplicate were used for each experiment. Log-phase cells were inoculated and incubated for 2 hours prior to the start of treatment to achieve about 10^8 CFU/mL. Target PK parameters are listed in Tables E and F. The exposures were based on the published literatures disclosed in Example 2. Samples were collected from the central compartment for the determination of drug concentrations over a 32 hour period and were analyzed using an LC-MS/MS method.

For series [3] the following is noted: cited from earlier work.
Series [4] can be described thus: Example 5: expected Compound I free drug 24 h AUC according to dosage regimen, by individual subject (Table B). Details: species or system human. Particulars: for Expected Compound I free drug 24 h AUC: individual subjects. From the text:
Table B provides a summary of the analysis of different Compound I dosing regimens by individual subjects enrolled the study.

The mark [5] stands for this setting: 2 g q8h, Normal creatinine clearance.

Turning to `C[C@@H](O)[C@H]1C(=O)N2C(C(=O)O)=C(S[C@@H]3CN[C@H](C(=O)N(C)C)C3)[C@H](C)[C@H]12` [meropenem, Meropenem], the MIC was 2 µg/mL (≈ 5.22 µM) in series [1] (P. aeruginosa PAM3210, read-out: MIC); 8 µg/mL (≈ 20.9 µM) in series [1] (P. aeruginosa PAM3353, read-out: MIC); 4 to 8 µg/mL (≈ 10.4 to 20.9 µM) in series [1] (P. aeruginosa PAM3377, read-out: MIC); 2 µg/mL (≈ 5.22 µM) in series [1] (read-out: Meropenem (w/ 8 mg/L Compound I) MIC, P. aeruginosa PAM3210, w/ 8 mg/L Compound I); 8 µg/mL (≈ 20.9 µM) in series [1] (read-out: Meropenem (w/ 8 mg/L Compound I) MIC, P. aeruginosa PAM3353, w/ 8 mg/L Compound I); 4 to 8 µg/mL (≈ 10.4 to 20.9 µM) in series [1] (read-out: Meropenem (w/ 8 mg/L Compound I) MIC, P. aeruginosa PAM3377, w/ 8 mg/L Compound I). In addition, the MIC in series [1] (read-out: Meropenem MIC, P. aeruginosa PAM3210) was 2 µg/mL (≈ 5.22 µM); in series [1] (read-out: Meropenem MIC, P. aeruginosa PAM3353), 8 µg/mL (≈ 20.9 µM); in series [1] (read-out: Meropenem MIC, P. aeruginosa PAM3377) it was 4 to 8 µg/mL (≈ 10.4 to 20.9 µM). Moreover, in series [2], the “efficacy, number of strains” value is given as “effective against 2 out of 3 strains”. For the same compound, the “Change in Log CFU over 32 hours” value in series [2] (P. aeruginosa PAM3377, human equivalent 2 g q8h by 3 hour infusion) was found to be 3.7 Log CFU. Also, the “mean meropenem ELF concentration” value in series [3] (500 mg dose, 1 hour) is 5.3 µg/mL; in series [3] (500 mg dose, 2 hours), 2.7 µg/mL; in series [3] (500 mg dose, 3 hours), 1.9 µg/mL; in series [3] (500 mg dose, 5 hours), 0.7 µg/mL; in series [3] (500 mg dose, 8 hours), 0.2 µg/mL; in series [3] (1 gram dose, 1 hour), 7.7 µg/mL. In addition, the “mean meropenem ELF concentration” value is 4.0 µg/mL in series [3] (1 gram dose, 2 hours); 1.7 µg/mL in series [3] (1 gram dose, 3 hours); 0.8 µg/mL in series [3] (1 gram dose, 5 hours); 0.03 µg/mL in series [3] (1 gram dose, 8 hours); 2.9 µg/mL in series [3] (2 gram dose, 1-hour sampling time); 2.8 µg/mL in series [3] (2 gram dose, 3-hour sampling time). Further, the “intrapulmonary penetration based on AUC0-8 of ELF and total plasma” value was “approximately 43%” in series [3] (500 mg dose) and approximately 28% in series [3] (1 gram dose).
In the case of `O=C(O)C[C@@H]1CC[C@H](NC(=O)Cc2cccs2)B(O)O1` [Compound I], the “Expected Compound I free drug 24 h AUC” value in series [4] (500 mg q12h, 10-19 ml/min group) was 505.1 µg·h/mL and 427.3 µg·h/mL and 493.6 µg·h/mL and 790.7 µg·h/mL and 830.3 µg·h/mL and 719.6 µg·h/mL; in series [4] (500 mg q12h, 30-49 ml/min group) it was 119.3 µg·h/mL and 129.1 µg·h/mL and 115.2 µg·h/mL and 228.1 µg·h/mL and 251.1 µg·h/mL and 310.6 µg·h/mL; in series [4] (500 mg q12h, >50 mL/min group) it was 70.0 µg·h/mL and 62.7 µg·h/mL and 69.2 µg·h/mL and 88.4 µg·h/mL and 70.7 µg·h/mL and 68.1 µg·h/mL and 108.4 µg·h/mL and 108.0 µg·h/mL; in series [4] (500 mg q24h, 10-19 ml/min group), 252.5 µg·h/mL and 213.7 µg·h/mL and 246.8 µg·h/mL and 395.4 µg·h/mL and 415.1 µg·h/mL and 359.8 µg·h/mL; in series [4] (500 mg q24h, 30-49 ml/min group), 59.6 µg·h/mL and 64.5 µg·h/mL and 57.6 µg·h/mL and 114.0 µg·h/mL and 125.5 µg·h/mL and 155.3 µg·h/mL; in series [4] (500 mg q24h, >50 mL/min group) it was 35.0 µg·h/mL and 31.4 µg·h/mL and 34.6 µg·h/mL and 44.2 µg·h/mL and 35.4 µg·h/mL and 34.1 µg·h/mL and 54.2 µg·h/mL and 54.0 µg·h/mL. In addition, the “Expected Compound I free drug 24 h AUC” value was 1515.2 µg·h/mL and 1281.9 µg·h/mL and 1480.9 µg·h/mL and 2372.2 µg·h/mL and 2490.8 µg·h/mL and 2158.8 µg·h/mL in series [4] (1 g q8h, 10-19 ml/min group); 357.8 µg·h/mL and 387.2 µg·h/mL and 345.5 µg·h/mL and 684.2 µg·h/mL and 753.3 µg·h/mL and 931.8 µg·h/mL in series [4] (1 g q8h, 30-49 ml/min group); 210.0 µg·h/mL and 188.2 µg·h/mL and 207.5 µg·h/mL and 265.2 µg·h/mL and 212.1 µg·h/mL and 204.3 µg·h/mL and 325.3 µg·h/mL and 324.0 µg·h/mL in series [4] (1 g q8h, >50 mL/min group); 505.1 µg·h/mL and 427.3 µg·h/mL and 493.6 µg·h/mL and 790.7 µg·h/mL and 830.3 µg·h/mL and 719.6 µg·h/mL in series [4] (1 g q24h, 10-19 ml/min group); 119.3 µg·h/mL and 129.1 µg·h/mL and 115.2 µg·h/mL and 228.1 µg·h/mL and 251.1 µg·h/mL and 310.6 µg·h/mL in series [4] (1 g q24h, 30-49 ml/min group); 70.0 µg·h/mL and 62.7 µg·h/mL and 69.2 µg·h/mL and 88.4 µg·h/mL and 70.7 µg·h/mL and 68.1 µg·h/mL and 108.4 µg·h/mL and 108.0 µg·h/mL in series [4] (1 g q24h, >50 mL/min group). Also, the “Expected Compound I free drug 24 h AUC” value was 3030.3 µg·h/mL and 2563.8 µg·h/mL and 2961.8 µg·h/mL and 4744.3 µg·h/mL and 4981.6 µg·h/mL and 4317.6 µg·h/mL in series [4] (2 g q8h, 10-19 ml/min group); 715.7 µg·h/mL and 774.5 µg·h/mL and 690.9 µg·h/mL and 1368.4 µg·h/mL and 1506.5 µg·h/mL and 1863.5 µg·h/mL in series [4] (2 g q8h, 30-49 ml/min group); 420.0 µg·h/mL and 376.3 µg·h/mL and 415.0 µg·h/mL and 530.5 µg·h/mL and 424.2 µg·h/mL and 408.7 µg·h/mL and 650.6 µg·h/mL and 648.1 µg·h/mL in series [4] (2 g q8h, >50 mL/min group). Besides, the “Expected Compound I free drug 24 h AUC, Mean” value in series [4] (setting [5]) was found to be 358 µg·h/mL. For the same compound, the “Expected Compound I free drug 24 h AUC, Range” value in series [4] (setting [5]) fell in the range of 284 to 470 µg·h/mL.
